The record followed here is paper PMC4912613, “A broad analysis of resistance development in the malaria parasite” (Nature Communications, 2016).

Structures are written as SMILES. Where two headings read alike, the source gives them in different places.

In one assay the test system is W2. The assay is described as follows: Cross-resistance EC50 assay, W2 parent. Type of assay: cell-based, Plasmodium falciparum. The settings on record: Plasmodium falciparum, 48 h, read-out: W2F6 (PARENT) Average EC50. The source says: (§1) Multidrug resistance alleles, including mutations in P. falciparum chloroquine resistance transporter (pfcrt) and P. falciparum multi-drug resistance transporter 1 (pfmdr1) are very common in field isolates. Therefore, we sought to assess the degree to which pre-existing resistance alleles would contribute to a loss of potency for this diverse collection of small molecule compounds. Fifteen clones derived from three main parent lines were chosen to maximize diversity in mutated pathways and genetic backgrounds, thus representing the variety of resistance seen in the field: 3D7 (ref. [23]), W2 (ref. [24]) or Dd2 (ref. [25]). The 3D7 line originates from the clone of a Netherlands clinical isolate strain[23][26] and is generally considered to be drug sensitive, though it does convey resistance to sulfadoxine. Conversely, W2 (ref. [24], [27]) and Dd2 (ref. [25]) are multi-drug-resistant lines originating from the Indochina III/CDC isolate, which contain point mutations in pfcrt as well as amplifications in pfmdr1 and GTP cyclohydrolase.
(§2) To evaluate potential overlapping activity against known antimalarial drug targets, we performed dose-response studies with each compound against our assembled set of drug-resistant lines and their corresponding parents, in an asexual blood stage proliferation assay (Table 1). Comparisons were made to the drug-sensitive strain 3D7 when a parent was unavailable (TM90C2A, W2 and Dd2). As laboratories conducted EC50 assays with different strains and protocols, all comparisons were made between assays from the same laboratory and under the same assay conditions. Compounds displaying >5-fold EC50 shifts relative to the parent or sensitive strain were flagged as having potentially non-novel targets. Average fold shifts per strain ranged from 0.82 to 2.34, with a median of 1.23 indicating there was not common resistance to any one resistant clone. No resistance patterns were observed when classifying the compounds based on chemical structure, but this was not surprising given the diversity of compounds chosen. On the other hand, given that these confirmed compounds were derived from larger unconfirmed hit lists to which some filtration criteria may have been applied (for example, elimination of obvious dihydrofolate reductase inhibitors[32]), some[10][11][12][13] pre-existing bias may exist in the set.
The 48-h assay was carried out in a 96-well format following standard methods using the ^3H-hypoxanthine incorporation assay. The raw EC50 values corresponding to this assay can be found in Supplementary Data 3. Briefly, this assay relies on the parasite incorporation of labelled hypoxanthine that is proportional to P. falciparum growth. A culture of parasitized RBCs (0.5% parasitemia with a percentage of ring stage higher than 70% of total parasitemia, 2.0% haematocrit) in RPMI-1640, […] and 5 μM hypoxanthine was exposed to drug serial dilutions. Plates were incubated for 24 h at 37 °C, 5% CO2, 5% O2 and 90% N2. After 24 h of incubation, ^3H-hypoxanthine was added and plates were incubated for an additional 24-h period. After that, parasites were harvested on a glass fibre filter using a TOMTEC Cell Harvester 96. Filters were dried and melt-on scintillator sheets were used to determine the incorporation of ^3H-hypoxanthine. Radioactivity was measured using a microbeta counter. Data were normalized using the incorporation of the positive (parasitized RBCs without drug) and negative (same culture with artesunate at 2 μM) controls. All assays were conducted in triplicate using three independently grown cultures, and EC50 values were determined using the XLfit add-in module for Excel (version 2.3.1) from Grafit (version 5.3.1.3), where parameter h is the assay hill slope, x is the compound concentration and y is the inhibition of growth effect. The XLfit equation is: […]
Alternatively, a SYBR Green-based proliferation approach was used for the 72-h assay, as previously described. […]

The subject of the next assay is Dd2. The assay is described as follows: Cross-resistance EC50 assay, Dd2 parent. Type of assay: cell-based, Plasmodium falciparum. The settings on record: Plasmodium falciparum, DD2, 72 h.
Excerpt: as §1
as §2, with “set. […]” for “set.”
Alternatively, a SYBR Green-based proliferation approach was used for the 72-h assay, as previously described. Briefly, a culture of either synchronized or asynchronous parasitized RBCs (0.3% parasitemia and 4% haematocrit) in screening medium (identical to supplemented medium above except no serum was added) was exposed to serial drug dilutions. Plates were incubated at 37 °C and gassed with 93% N2, 4% CO2 and 3% O2 for 72 h. Following incubation, 10 × SYBR Green I (Invitrogen; supplied in 10,000 × concentration) in lysis buffer ([…], 5 mM EDTA, 0.16% Saponin wt per vol and 1.6% Triton X vol per vol) was added to the wells and the plates were incubated overnight at room temperature before plate reading. EC50 assays were repeated three times, taking the average EC50 value from each assay set, and removing any outliers using a single iteration of Grubbs' test, eliminating values with z-scores above the critical z-value (α=0.05). The raw EC50 values for synchronized parasites assayed in a 384-well format are listed in Supplementary Data 4. The raw EC50 values for asynchronous parasites assayed in a 96 or 1536-well format are listed in Supplementary Data 5.
EC50 values for each strain were compared with those of the corresponding parent strain to determine fold-shift changes and identify resistance. To minimize the cause variance between assays, all comparisons were conducted between strains assayed under identical conditions. A one-way ANOVA followed by a Dunnet's post-test was conducted in GraphPad Prism to identify significant changes between the parent and resistant strain.

Where [1] appears, read: read-out: Dd2 (PARENT) Average EC50.
Setting [2] is: read-out: Dd2 (PARENT) EC50 (µM) Average EC50.

Consider `Cc1nc2ccc3ccc(CNc4ccc(C(=O)CC(CCC(=O)O)C(=O)O)cc4)cc3c2c(=O)[nH]1.Cl` (stereo not drawn) [MMV027634], for which the EC50 (commonly the concentration giving half of the maximal effect) with W2 stood at 62 nM; in the assay on Dd2 (setting [1]), 0.035 µM; in the assay with Dd2 (setting [2]) it was 0.124 µM.
For `OC(CNC1CCCCC1)Cn1c2ccc(I)cc2c2cc(I)ccc21` (stereo not drawn) [MMV665882], in that order: 26 nM, 0.05 µM and 0.038 µM.
Take `COc1ccc(-c2nc(NC(=O)Cc3ccc4c(c3)OCCO4)sc2C)cc1` [MMV019719]: the EC50 was found to be 143 nM in the assay on W2, 0.26 µM in the assay on Dd2 (setting [1]) and 0.277 µM in the assay with Dd2 (setting [2]).
For `CCN(CC)CCn1c(=N)n(CC(O)c2ccc(Cl)c(Cl)c2)c2ccccc21.Cl` (stereo not drawn) [MMV000248], in that order: 605 nM, 0.424 µM and 0.413 µM.
As to `O=C(NC(c1ccccc1)c1ccc2cccnc2c1O)c1ccccc1` (stereo not drawn) [MMV666080], the concentration giving a half-maximal response (EC50) came out at 3160 nM in the assay with W2, 0.426 µM with Dd2 (setting [1]) and 0.886 µM in the assay on Dd2 (setting [2]).
In the same order, the values of `O=C(Nc1ccccc1O)c1ccc(Oc2cccc(C(=O)Nc3ccccc3O)c2)cc1` [MMV665888] are 515 nM, 0.623 µM and 0.66 µM.
For `CCCOCc1cc(CN2CCN(c3cccc(Cl)c3)CC2)c(O)c2ncccc12` [MMV000787], in that order: 792 nM, 0.588 µM and 1.59 µM.
Take `COc1cc(-c2nc(-c3ccccc3)c(-c3ccccc3)[nH]2)ccc1OCCN(C)C` [MMV027496]: the EC50 is 272 nM with W2, 0.304 µM with Dd2 (setting [1]) and 0.74 µM in the assay with Dd2 (setting [2]).
As to `COc1cc(C(=O)ON=C(N)Cc2cccc3ccccc23)cc(OC)c1OC` [MMV666687], the values for the EC50 in the assay on W2, in the assay on Dd2 (setting [1]) and in the assay with Dd2 (setting [2]) were 463 nM, 0.314 µM and 0.87 µM, respectively.
With `CCN(CC)S(=O)(=O)c1ccc(-c2csc(Nc3ccc(C)c(C)c3)n2)cc1` [MMV009108], the results for the EC50 with W2, with Dd2 (setting [1]) and in the assay with Dd2 (setting [2]) were 378 nM, 0.368 µM and 0.929 µM, respectively.
For `COc1ccccc1CNC(=O)CCn1c(=O)[nH]c2ccsc2c1=O` [MMV019066], in that order: 1270 nM, 0.054 µM and 0.00951 µM.
In the same order, the values of `CNCc1ccc2nc(-c3coc(Cc4cc(Cl)ccc4OCC(C)C)n3)[nH]c2c1.Cl.Cl` [MMV026596] are 645 nM, 0.347 µM and 0.158 µM.
Regarding `O=C(NCC(CCCN1CCC(c2c[nH]c3ccccc23)CC1)c1ccccc1)Nc1ccc(Cl)c(Cl)c1` (stereo not drawn) [MMV029272], the EC50 with W2 came to 836 nM; in the assay on Dd2 (setting [1]), 0.824 µM; with Dd2 (setting [2]), 0.285 µM.
Turning to `Cc1ccc(S(=O)(=O)n2cc(-c3ccnc(N)c3)c3cc(Br)cnc32)cc1` [MMV024114], the EC50 in the assay with W2 was 1050 nM; in the assay on Dd2 (setting [1]), 0.766 µM; in the assay on Dd2 (setting [2]), 1.64 µM.
In the same order, the values of `Nc1ccc(-c2nc3cc(Oc4ccc(Oc5ccc6[nH]c(-c7ccc(N)cc7)nc6c5)cc4)ccc3[nH]2)cc1` [MMV011895] are 279 nM, 0.259 µM and 0.431 µM.
With `COC(=O)c1ccc(C2C3=C(O)CC(c4ccc(F)cc4)CC3=Nc3ccccc3N2C(=O)c2ccccc2)cc1` (stereo not drawn) [MMV011438], the EC50 with W2 was 644 nM; with Dd2 (setting [1]) it was 0.152 µM; in the assay with Dd2 (setting [2]) it was 0.655 µM.
For `COc1cc(-c2nc(-c3ccccc3)c(-c3ccccc3)[nH]2)cc(OC)c1O` [MMV020750], in that order: 1870 nM, 0.678 µM and 0.773 µM.
In the same order, the values of `Nc1ccc(-c2nc3cc(Cc4ccc5[nH]c(-c6ccc(N)cc6)nc5c4)ccc3[nH]2)cc1` [MMV665943] are 191 nM, 0.412 µM and 0.488 µM.
Turning to `Cl.c1ccc2c(NCCCCCCNc3c4c(nc5ccccc35)CCCC4)c3c(nc2c1)CCCC3` [MMV019555], the EC50 in the assay on W2 is 491 nM; in the assay with Dd2 (setting [1]), 0.236 µM; with Dd2 (setting [2]) it was 0.241 µM.
For `Cc1cc(Nc2ccc(OCc3ccccc3)cc2)nc2cc(O)ccc12` [MMV007181], in that order: 34 nM, 0.186 µM and 0.19 µM.
As to `Cc1ccc(Cn2c(N3CCC(C(=O)NCc4cccs4)CC3)nc3ccccc32)cc1` [MMV007564], the 50% effective concentration (EC50) with W2 is 503 nM; in the assay on Dd2 (setting [1]), 0.392 µM; in the assay with Dd2 (setting [2]) it was 0.342 µM.
